Patent US9688670B2, “Benzimidazole compounds and medical uses thereof” (Sumitomo Dainippon Pharma Co., Ltd., priority 2015, dated 2017)

Molecular target: human SCN9A (Nav 1.7) (Homo sapiens, UniProt Q15858)
Test: Measurement of Na ion current (Nav 1.7 current) by automated patch clamp assay using cells stably-expressing human SCN9A
Type: cell-based
Conditions: concentration of each compound 10 μmol/L, holding potential inactivating 50% Nav 1.7 channel (around −60 mV), room temperature
Experimental: Measurement of Na Ion Current in Voltage-Dependent Na Channel Gene Expressed Cell Nav 1.7 current was measured by automated patch clamp assay using cells stably-expressing human SCN9A. Cells Stably-Expressing Human SCN9A Tetracycline-induced cells stably-expressing SCN9A were obtained from ChanTest Corporation. […] Next day, the Na ion current was measured by automated patch clamp assay. Electrophysiologic Measurement of Na Ion Current The Na ion current was measured by automated patch clamp assay using the following extracellular solution and intracellular solution. […] The control of the stimulating pulse and the data acquisition were carried out using EPC10 amplifier and Patch Master Software (HEKA). Data were sampled at 10 kHz, and low-pass filtered at 3 kHz. All the measurements were carried out at room temperature. […] The inhibitory rate of the Na ion current by the test compounds was calculated according to the following calculating formula with the peak current value generated by the depolarizing pulse. […] The inhibitory rate of Na ion current by each Example Compound was evaluated.

Chain of human SCN9A (Nav 1.7) (Q15858 whole entry): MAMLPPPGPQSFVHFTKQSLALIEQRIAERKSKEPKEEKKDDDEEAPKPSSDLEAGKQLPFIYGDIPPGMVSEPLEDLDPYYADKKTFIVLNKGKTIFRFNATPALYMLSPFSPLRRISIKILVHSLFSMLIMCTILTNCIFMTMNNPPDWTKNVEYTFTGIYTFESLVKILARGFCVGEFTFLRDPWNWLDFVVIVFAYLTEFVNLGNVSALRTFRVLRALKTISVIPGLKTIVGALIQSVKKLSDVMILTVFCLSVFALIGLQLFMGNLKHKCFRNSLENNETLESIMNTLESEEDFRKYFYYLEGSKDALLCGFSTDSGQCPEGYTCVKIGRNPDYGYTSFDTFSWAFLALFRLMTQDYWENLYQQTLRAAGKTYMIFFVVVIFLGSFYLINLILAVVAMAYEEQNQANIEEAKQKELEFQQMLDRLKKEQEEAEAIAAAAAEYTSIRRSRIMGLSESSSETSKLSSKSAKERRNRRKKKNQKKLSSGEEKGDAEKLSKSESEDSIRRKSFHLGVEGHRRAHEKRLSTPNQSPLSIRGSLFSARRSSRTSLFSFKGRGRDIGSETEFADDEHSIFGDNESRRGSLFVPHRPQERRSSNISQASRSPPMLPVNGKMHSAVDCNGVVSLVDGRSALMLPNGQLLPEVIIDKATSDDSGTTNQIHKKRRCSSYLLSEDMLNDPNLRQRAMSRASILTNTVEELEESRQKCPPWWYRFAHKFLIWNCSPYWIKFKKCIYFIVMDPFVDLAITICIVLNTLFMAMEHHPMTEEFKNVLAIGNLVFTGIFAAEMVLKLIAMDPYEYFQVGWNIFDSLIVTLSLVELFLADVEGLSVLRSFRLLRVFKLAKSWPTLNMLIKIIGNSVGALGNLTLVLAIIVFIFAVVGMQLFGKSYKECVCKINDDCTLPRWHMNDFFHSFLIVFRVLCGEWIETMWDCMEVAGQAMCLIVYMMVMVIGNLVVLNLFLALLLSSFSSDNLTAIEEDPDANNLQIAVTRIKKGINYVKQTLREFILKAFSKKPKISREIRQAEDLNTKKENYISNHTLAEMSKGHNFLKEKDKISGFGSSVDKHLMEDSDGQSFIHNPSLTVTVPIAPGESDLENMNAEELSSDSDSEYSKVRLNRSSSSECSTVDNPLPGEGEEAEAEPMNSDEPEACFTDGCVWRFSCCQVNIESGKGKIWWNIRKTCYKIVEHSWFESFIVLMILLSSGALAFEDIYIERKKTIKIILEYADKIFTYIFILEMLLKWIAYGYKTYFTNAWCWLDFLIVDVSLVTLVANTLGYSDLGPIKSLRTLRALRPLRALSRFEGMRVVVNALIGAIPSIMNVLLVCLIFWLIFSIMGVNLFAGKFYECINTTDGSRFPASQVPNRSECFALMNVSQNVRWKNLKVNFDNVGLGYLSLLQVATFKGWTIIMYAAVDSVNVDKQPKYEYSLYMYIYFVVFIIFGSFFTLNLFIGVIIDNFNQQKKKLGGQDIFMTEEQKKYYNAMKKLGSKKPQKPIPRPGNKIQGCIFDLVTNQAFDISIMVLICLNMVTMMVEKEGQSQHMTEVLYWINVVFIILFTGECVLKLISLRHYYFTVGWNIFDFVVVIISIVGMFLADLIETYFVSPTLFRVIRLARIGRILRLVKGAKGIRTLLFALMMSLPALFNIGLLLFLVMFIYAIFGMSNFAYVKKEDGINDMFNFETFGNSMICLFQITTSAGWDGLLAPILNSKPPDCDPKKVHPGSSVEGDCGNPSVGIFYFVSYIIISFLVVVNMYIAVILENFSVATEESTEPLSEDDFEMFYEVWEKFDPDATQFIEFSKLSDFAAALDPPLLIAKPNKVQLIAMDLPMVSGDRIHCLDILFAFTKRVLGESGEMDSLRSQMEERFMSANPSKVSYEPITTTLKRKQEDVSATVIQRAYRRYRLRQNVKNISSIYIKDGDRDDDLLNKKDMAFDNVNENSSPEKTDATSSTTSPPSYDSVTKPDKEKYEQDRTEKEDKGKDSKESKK

Inhibitory rate (%) of Na ion current	inhibition at 10 µM (read-out: Inhibitory rate (%) of Na ion current)	Compound
15%	–	OC1(Cn2cnc3ccc(Oc4ccc(C(F)(F)F)cc4)cc32)COC1 [Example 90]
–	21%	C[C@]1(O)C[C@@H](n2cnc3ccc(Oc4ccc(C(F)(F)F)cn4)cc32)C1 [Example 121]
